Values quoted from earlier work as cited in PMC11011029, “Design and Preclinical Evaluation of a Novel Prostate-Specific Membrane Antigen Radioligand Modified with a Transthyretin Binder” (Cancers, 2024).

Experiments:
[1] = design: method as in PMID 29684274; settings: after 24 h incubation, same experimental conditions
PSMA = biological target: T1, PSMA (Homo sapiens, UniProt Q04609); design: method as in PMID 32042329; settings: read-out: PSMA-binding affinity KD
T1 construct: expressed in transfected cells; host or cells: PC-3 PIP cells (from Prof. Martin Pomper, Johns Hopkins)

[2] = undiluted blood plasma
[3] = tested on: PC-3 PIP/flu tumor-bearing mice; settings: 24 h p.i.

T1 sequence (Q04609 whole entry): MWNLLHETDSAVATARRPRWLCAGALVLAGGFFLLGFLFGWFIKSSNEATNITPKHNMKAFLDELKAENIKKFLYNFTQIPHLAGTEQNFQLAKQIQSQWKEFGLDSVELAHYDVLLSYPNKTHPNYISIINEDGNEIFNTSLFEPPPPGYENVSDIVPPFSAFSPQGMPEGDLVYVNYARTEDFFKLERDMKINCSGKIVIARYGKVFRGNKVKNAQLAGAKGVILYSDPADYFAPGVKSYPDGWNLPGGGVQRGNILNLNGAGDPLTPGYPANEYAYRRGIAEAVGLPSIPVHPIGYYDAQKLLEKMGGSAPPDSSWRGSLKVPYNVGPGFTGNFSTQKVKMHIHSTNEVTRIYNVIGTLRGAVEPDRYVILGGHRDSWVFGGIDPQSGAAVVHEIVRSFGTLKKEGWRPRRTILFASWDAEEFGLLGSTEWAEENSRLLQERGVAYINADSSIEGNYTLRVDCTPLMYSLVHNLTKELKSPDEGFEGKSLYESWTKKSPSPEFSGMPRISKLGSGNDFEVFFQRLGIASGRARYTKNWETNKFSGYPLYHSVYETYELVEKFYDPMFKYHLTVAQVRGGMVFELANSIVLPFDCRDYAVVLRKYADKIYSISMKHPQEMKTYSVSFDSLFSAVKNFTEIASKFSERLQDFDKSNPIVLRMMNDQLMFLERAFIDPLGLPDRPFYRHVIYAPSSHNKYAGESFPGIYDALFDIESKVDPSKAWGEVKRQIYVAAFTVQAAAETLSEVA

In the case of [^177Lu]Lu-PSMA-617, the intact radioligand [1] is given as less than 2%, the logD is given as −4.4 and the Kd (PSMA) is given as 0.013 ± 0.001 µM. The “fraction bound to serum proteins” value [2] was 59 ± 1% and the “uptake in PC-3 PIP xenografts” value [3] was 37 ± 6 % IA/g.
